Source: US20100125059A1, “1-BIARYLAZETIDINONE DERIVATIVE” (Teijin Pharma Limited, priority 2007, published 2010)
Where two headings read alike, the source gives them in different places.

Experiments:
Caco-2 cells = assay: Cholesterol absorption inhibition assay (in vitro), [14C] cholesterol mixed micelles; assay type: cell-based; conditions: Homo sapiens, 24 hours, read-out: cholesterol absorption inhibitory activity; for inhibition at 12.5 µM: concentration of 12.5 μM; for inhibition at 10 µM: concentration of 10 μM
Procedure, shortened: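 Caco-2 cells cultured 2 weeks, then incubated 24 h at 37° C with [14C] cholesterol mixed micelles (oleate, phosphatidylcholine, taurocholate) plus compound at 0.5 to 25 μM final. Lipids extracted, cholesteryl ester separated by TLC and quantified by imaging plate; inhibition as background-corrected percentage of solvent control.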

[1] = tested on: hamsters fed a high cholesterol diet; assay: Measurement of lipid lowering effect in hamsters fed a high cholesterol diet; assay type: in vivo, Male Golden Syrian hamsters; conditions: for inhibition in vivo at 0.1 mg/kg / inhibition in vivo at 0.01 mg/kg: Mesocricetus auratus, po, 168 h, gavage once daily, 7 days
Procedure, shortened: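 Male Golden Syrian hamsters (6/group) on 0.5% cholesterol diet, dosed by gavage once daily in corn oil at 0.01 to 10 mg/kg; serum and liver sampled 4 h after last dose. TC, TG and LDL-C measured enzymatically; effects expressed as % suppression versus control and normal-diet groups.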

[2] = dose 0.1 mg/kg, read-out: serum TG lowering effect (serum TG lowering rate)
[3] = dose 0.1 mg/kg, read-out: serum TC lowering effect (suppression rate of an increase in serum TC concentration)
[4] = dose 0.1 mg/kg, read-out: serum LDL-C lowering effect (suppression rate of an increase in serum LDL-C concentration)
[5] = read-out: liver TC lowering effect (suppression rate of an increase in liver TC concentration)
[6] = read-out: serum LDL-C lowering effect (suppression rate of an increase in serum LDL-C concentration)
[7] = read-out: serum TC lowering effect (suppression rate of an increase in serum TC concentration)

| SMILES | inhibition at 12.5 µM (Caco-2 cells) [%] | inhibition in vivo at 0.1 mg/kg [1, 2] [%] | inhibition at 10 µM (Caco-2 cells) [%] | inhibition in vivo at 0.1 mg/kg [1, 3] [%] | further results |
| --- | --- | --- | --- | --- | --- |
| Cc1cc(O)ccc1[C@@H]1[C@@H](SC[C@H](O)c2ccc(F)cc2)C(=O)N1c1ccc(-c2cncc(C(F)(F)F)c2)cc1 [Example 99, (3R,4R)-3-[(2R)-2-(4-fluorophenyl)-2-hydroxyethylthio]-4-(4-hydroxy-2-methylphenyl)-1-[4-(5-trifluoromethylpyridin-3-yl)phenyl]azetidin-2-one] | ≥ 60 | ≥ 20 |  |  |  |
| COc1cc(N2C(=O)[C@H](SC[C@H](O)c3ccc(F)cc3)[C@H]2c2ccc(O)cc2)ccc1-c1cccnc1 [Example 52, (3R,4R)-3-[(2R)-2-(4-fluorophenyl)-2-hydroxyethylthio]-4-(4-hydroxyphenyl)-1-[3-methoxy-4-(pyridin-3-yl)phenyl]azetidin-2-one] |  | ≥ 20 | ≥ 50 |  |  |
| COc1cc(O)ccc1[C@@H]1[C@@H](SC[C@H](O)c2ccc(F)cc2)C(=O)N1c1ccc(-c2cccnc2)cc1 [Example 24, (3R,4R)-3-[(2R)-2-(4-fluorophenyl)-2-hydroxyethylthio]-4-(4-hydroxy-2-methoxyphenyl)-1-[4-(pyridin-3-yl)phenyl]azetidin-2-one] |  |  | ≥ 50 | ≥ 50 | inhibition in vivo at 0.1 mg/kg ([1]; dose 0.1 mg/kg, read-out: liver TC lowering effect (suppression rate of an increase in liver TC concentration)): ≥ 50% |
| Cc1ccc([C@@H](O)CS[C@H]2C(=O)N(c3ccc(-c4cccnc4)cc3)[C@@H]2c2ccc(O)cc2)cc1 [Example 45, (3R,4R)-3-[(2R)-2-hydroxy-2-(4-methylphenyl)ethylthio]-4-(4-hydroxyphenyl)-1-[4-(pyridin-3-yl)phenyl]azetidin-2-one] | ≥ 60 |  | ≥ 50 | ≥ 50 | inhibition in vivo at 0.1 mg/kg [1, 4]: ≥ 50% |
| O=C1[C@H](SC[C@H](O)c2ccc(Cl)c(F)c2)[C@@H](c2ccc(O)cc2)N1c1ccc(-c2cccnc2)cc1 [Example 81, (3R,4R)-3-[(2R)-2-(4-chloro-3-fluorophenyl)-2-hydroxyethylthio]-4-(4-hydroxyphenyl)-1-[4-(pyridin-3-yl)phenyl]azetidin-2-one] | ≥ 60 |  |  | ≥ 50 | inhibition in vivo at 0.1 mg/kg [1, 4]: ≥ 50% |
| Cc1ccc(-c2ccc(N3C(=O)[C@H](SC[C@H](O)c4ccc(F)cc4)[C@H]3c3ccc(O)cc3)cc2)cn1 [Example 20, (3R,4R)-3-[(2R)-2-(4-fluorophenyl)-2-hydroxyethylthio]-4-(4-hydroxyphenyl)-1-[4-(6-methylpyridin-3-yl)phenyl]azetidin-2-one] | ≥ 60 |  | ≥ 50 |  | inhibition in vivo at 0.01 mg/kg [1, 5]: ≥ 30%; inhibition in vivo at 0.01 mg/kg [1, 6]: ≥ 30% |
| O=C1[C@H](SC[C@H](O)c2ccc(Cl)cc2)[C@@H](c2ccc(O)cc2)N1c1ccc(-c2cccnc2)cc1 [Example 32, (3R,4R)-3-[(2R)-2-(4-chlorophenyl)-2-hydroxyethylthio]-4-(4-hydroxyphenyl)-1-[4-(pyridin-3-yl)phenyl]azetidin-2-one] | ≥ 60 | ≥ 20 | ≥ 50 |  | inhibition in vivo at 0.01 mg/kg [1, 6]: ≥ 30% |
| COc1ccc(-c2ccc(N3C(=O)[C@H](SC[C@H](O)c4ccc(F)cc4)[C@H]3c3ccc(O)cc3)cc2)cn1 [Example 14, (3R,4R)-3-[(2R)-2-(4-fluorophenyl)-2-hydroxyethylthio]-4-(4-hydroxyphenyl)-1-[4-(6-methoxypyridin-3-yl)phenyl]azetidin-2-one] |  | ≥ 20 | ≥ 50 |  |  |
| N#Cc1ccc(-c2ccc(N3C(=O)[C@H](SC[C@H](O)c4ccc(F)cc4)[C@H]3c3ccc(O)cc3)cc2)cn1 [Example 9, 5-(4-{(3R,4R)-3-[(2R)-2-(4-fluorophenyl)-2-hydroxyethylthio]-4-(4-hydroxyphenyl)-2-oxoazetidinyl}phenyl)pyridine-2-carbonitrile] |  | ≥ 20 | ≥ 50 |  |  |
| N#Cc1cncc(-c2ccc(N3C(=O)[C@H](SC[C@H](O)c4ccc(Cl)cc4)[C@H]3c3ccc(O)cc3)cc2)c1 [Example 58, 5-(4-{(3R,4R)-3-[(2R)-2-(4-chlorophenyl)-2-hydroxyethylthio]-4-(4-hydroxyphenyl)-2-oxoazetidinyl}phenyl)pyridine-3-carbonitrile] | ≥ 60 | ≥ 20 | ≥ 50 |  | inhibition in vivo at 0.01 mg/kg [1, 5]: ≥ 30%; inhibition in vivo at 0.01 mg/kg [1, 6]: ≥ 30% |
| COc1ccncc1-c1ccc(N2C(=O)[C@H](SC[C@H](O)c3ccc(Cl)cc3)[C@H]2c2ccc(O)cc2)cc1 [Example 61, (3R,4R)-3-[(2R)-2-(4-chlorophenyl)-2-hydroxyethylthio]-4-(4-hydroxyphenyl)-1-[4-(4-methoxypyridin-3-yl)phenyl]azetidin-2-one] | ≥ 60 |  |  |  | inhibition in vivo at 0.1 mg/kg [1, 4]: ≥ 50% |
| CC(=O)c1cncc(-c2ccc(N3C(=O)[C@H](SC[C@H](O)c4ccc(F)cc4)[C@H]3c3ccc(O)cc3)cc2)c1 [Example 48, (3R,4R)-3-[(2R)-2-(4-fluorophenyl)-2-hydroxyethylthio]-1-[4-(5-acetylpyridin-3-yl)phenyl]-4-(4-hydroxyphenyl)azetidin-2-one] | ≥ 60 | ≥ 20 | ≥ 50 |  |  |
| O=C1[C@H](SC[C@H](O)c2ccc(F)cc2)[C@@H](c2ccc(O)cc2)N1c1ccc(-c2cncc(C(F)(F)F)c2)cc1 [Example 51, (3R,4R)-3-[(2R)-2-(4-fluorophenyl)-2-hydroxyethylthio]-4-(4-hydroxyphenyl)-1-[4-(5-trifluoromethylpyridin-3-yl)phenyl]azetidin-2-one] |  | ≥ 20 | ≥ 50 |  | inhibition in vivo at 0.01 mg/kg [1, 7]: ≥ 30%; a serum TC lowering effect at a dose of 0.1 mg/kg ([1]; Table 22, suppression rate of an increase in serum TC concentration, dose 0.1 mg/kg): 104% |
| COc1ccncc1-c1ccc(N2C(=O)[C@H](SC[C@H](O)c3ccc(F)cc3)[C@H]2c2ccc(O)cc2)cc1 [Example 16, (3R,4R)-3-[(2R)-2-(4-fluorophenyl)-2-hydroxyethylthio]-4-(4-hydroxyphenyl)-1-[4-(4-methoxypyridin-3-yl)phenyl]azetidin-2-one] | ≥ 60 |  | ≥ 50 | ≥ 50 | inhibition in vivo at 0.01 mg/kg [1, 5]: ≥ 30% |
| O=C1[C@H](SC[C@H](O)c2ccc3occc3c2)[C@@H](c2ccc(O)cc2)N1c1ccc(-c2cccnc2)cc1 [Example 31, (3R,4R)-3-((2R)-2-benzo[b]furan-5-yl-2-hydroxyethylthio)-4-(4-hydroxyphenyl)-1-[4-(pyridin-3-yl)phenyl]azetidin-2-one] | ≥ 60 | ≥ 20 | ≥ 50 |  | inhibition in vivo at 0.01 mg/kg [1, 7]: ≥ 30% |
| Cc1cc(O)ccc1[C@@H]1[C@@H](SC[C@H](O)c2ccc(F)cc2)C(=O)N1c1ccc(-c2cccnc2)cc1 [Example 38, (3R,4R)-3-[(2R)-2-(4-fluorophenyl)-2-hydroxyethylthio]-4-(4-hydroxy-2-methylphenyl)-1-[4-(pyridin-3-yl)phenyl]azetidin-2-one] |  |  | ≥ 50 | ≥ 50 | inhibition in vivo at 0.01 mg/kg [1, 6]: ≥ 30%; inhibition in vivo at 0.1 mg/kg [1, 4]: ≥ 50% |
| COc1cncc(-c2ccc(N3C(=O)[C@H](SC[C@H](O)c4ccc(F)cc4)[C@H]3c3ccc(O)cc3)cc2)c1 [Example 50, (3R,4R)-3-[(2R)-2-(4-fluorophenyl)-2-hydroxyethylthio]-4-(4-hydroxyphenyl)-1-[4-(5-methoxypyridin-3-yl)phenyl]azetidin-2-one] |  | ≥ 20 | ≥ 50 | ≥ 50 |  |
